Results taken from patent US12642771B2, “Compositions comprising PGI2-receptor agonists and processes for the preparation thereof” (Arena Pharmaceuticals, Inc., priority 2017, dated 2026).

Assay: Release (dissolution) profile of capsules, USP Apparatus 2 (paddle) at 50 rpm, 500 mL aqueous sodium phosphate 0.05 M, pH 6.8
Assay type: physicochemical
Conditions: for Release rate (percentage of Compound 1 released): Table 3b; for mean value (n =4) of % of Compound 1 released: Table 3g-1, Storage Time = 0; for mean value (n =4) of % of Compound 1 released / mean value (n = 41) of % of Compound 1 released: size 4 capsule 0.5 mg Compound 1, Poloxamer 188:food grade GMS 70:30; for mean value (n = 41) of % of Compound 1 released: Table 3g-2 first line (title: Storage Time = 2 weeks; values equal Table 3g-1)
From the text: USP Apparatus 2 (Paddle Apparatus) is described, for example, in the United States Pharmacopeial Convention, Feb. 1, 2012, Chapter <711> (“Dissolution”), incorporated by reference herein in its entirety. See http://www.usp.org/sites/default/files/usp_pdf/EN/USPNF/revisions/m99470-gc_711.pdf. The assembly from Apparatus 1 is used, except that a paddle formed from a blade and a shaft is used as the stirring element. The shaft is positioned so that its axis is not more than 2 mm from the vertical axis of the vessel at any point and rotates smoothly without significant wobble that could affect the results. The vertical center line of the blade passes through the axis of the shaft so that the bottom of the blade is flush with the bottom of the shaft. A distance of 25±2 mm between the bottom of the blade and the inside bottom of the vessel is maintained during the test. The metallic or suitably inert, rigid blade and shaft comprise a single entity. A suitable two-part detachable design may be used provided the assembly remains firmly engaged during the test. The paddle blade and shaft may be coated with a suitable coating so as to make them inert. The dosage unit is allowed to sink to the bottom of the vessel before rotation of the blade is started. A small, loose piece of nonreactive material, such as not more than a few turns of wire helix, may be attached to dosage units that would otherwise float. Other validated sinker devices may be used.
Unless otherwise specified, the release profiles for capsules were measured using USP Apparatus 2 (paddle).
All release profiles disclosed in Tables 3c-3p were measured with USP Apparatus 2 (paddle) at 50 rpm in 500 mL of aqueous sodium phosphate at a concentration of 0.05 M (pH=6.8). The values in a given table relate to capsules obtained from the same batch. Values shown represent mean values over a number of dissolution tests (“n” in each table) in each case.

Release rate (percentage of Compound 1 released) (capsule 0.04 mg Compound 1, Poloxamer 188:food grade GMS 50:50, 4 wks storage (40° C.), 480 min): 90.9%
Release rate (percentage of Compound 1 released) (capsule 0.04 mg Compound 1, Poloxamer 188:food grade GMS 50:50, 4 wks storage (40° C.), 600 min): 93.2%
Release rate (percentage of Compound 1 released) (capsule 0.04 mg Compound 1, Poloxamer 188:food grade GMS 50:50, 4 wks storage (40° C.), 720 min): 95.0%
Release rate (percentage of Compound 1 released) (capsule 0.04 mg Compound 1, Poloxamer 188:food grade GMS 50:50, 4 wks storage (40° C.), 735 min): 94.3%
Release rate (percentage of Compound 1 released) (capsule 0.04 mg Compound 1, Poloxamer 188:food grade GMS 50:50, 18 hrs curing (50° C.), 30 min): 14.3%
Release rate (percentage of Compound 1 released) (capsule 0.04 mg Compound 1, Poloxamer 188:food grade GMS 50:50, 18 hrs curing (50° C.), 60 min): 21.8%
Release rate (percentage of Compound 1 released) (capsule 0.04 mg Compound 1, Poloxamer 188:food grade GMS 50:50, 18 hrs curing (50° C.), 120 min): 39.9%
Release rate (percentage of Compound 1 released) (capsule 0.04 mg Compound 1, Poloxamer 188:food grade GMS 50:50, 18 hrs curing (50° C.), 180 min): 56.3%
Release rate (percentage of Compound 1 released) (capsule 0.04 mg Compound 1, Poloxamer 188:food grade GMS 50:50, 18 hrs curing (50° C.), 240 min): 72.6%
Release rate (percentage of Compound 1 released) (capsule 0.04 mg Compound 1, Poloxamer 188:food grade GMS 50:50, 18 hrs curing (50° C.), 360 min): 89.2%
Release rate (percentage of Compound 1 released) (capsule 0.04 mg Compound 1, Poloxamer 188:food grade GMS 50:50, 18 hrs curing (50° C.), 480 min): 93.5%
Release rate (percentage of Compound 1 released) (capsule 0.04 mg Compound 1, Poloxamer 188:food grade GMS 50:50, 18 hrs curing (50° C.), 600 min): 95.7%
Release rate (percentage of Compound 1 released) (capsule 0.04 mg Compound 1, Poloxamer 188:food grade GMS 50:50, 18 hrs curing (50° C.), 720 min): 96.9%
Release rate (percentage of Compound 1 released) (capsule 0.04 mg Compound 1, Poloxamer 188:food grade GMS 50:50, 18 hrs curing (50° C.), 735 min): 95.6%
Release rate (percentage of Compound 1 released) (capsule 0.04 mg Compound 1, Poloxamer 188:food grade GMS 50:50, T = 0 (pre-curing), 30 min): 11.0%
Release rate (percentage of Compound 1 released) (capsule 0.04 mg Compound 1, Poloxamer 188:food grade GMS 50:50, T = 0 (pre-curing), 60 min): 18.3%
Release rate (percentage of Compound 1 released) (capsule 0.04 mg Compound 1, Poloxamer 188:food grade GMS 50:50, T = 0 (pre-curing), 120 min): 30.1%
Release rate (percentage of Compound 1 released) (capsule 0.04 mg Compound 1, Poloxamer 188:food grade GMS 50:50, T = 0 (pre-curing), 180 min): 39.6%
Release rate (percentage of Compound 1 released) (capsule 0.04 mg Compound 1, Poloxamer 188:food grade GMS 50:50, T = 0 (pre-curing), 240 min): 48.8%
Release rate (percentage of Compound 1 released) (capsule 0.04 mg Compound 1, Poloxamer 188:food grade GMS 50:50, T = 0 (pre-curing), 360 min): 64.1%
Release rate (percentage of Compound 1 released) (capsule 0.04 mg Compound 1, Poloxamer 188:food grade GMS 50:50, T = 0 (pre-curing), 480 min): 72.7%
Release rate (percentage of Compound 1 released) (capsule 0.04 mg Compound 1, Poloxamer 188:food grade GMS 50:50, T = 0 (pre-curing), 600 min): 79.8%
Release rate (percentage of Compound 1 released) (capsule 0.04 mg Compound 1, Poloxamer 188:food grade GMS 50:50, T = 0 (pre-curing), 720 min): 83.1%
Release rate (percentage of Compound 1 released) (capsule 0.04 mg Compound 1, Poloxamer 188:food grade GMS 50:50, T = 0 (pre-curing), 735 min): 84.6%
mean value (n =4) of % of Compound 1 released (30 min): 33.0%
mean value (n =4) of % of Compound 1 released (45 min): 64.2%
mean value (n =4) of % of Compound 1 released (60 min): 86.0%
mean value (n = 41) of % of Compound 1 released (30 min): 33.0%
mean value (n = 41) of % of Compound 1 released (45 min): 64.2%
mean value (n = 41) of % of Compound 1 released (60 min): 86.0%
release profile after curing and storage (capsule 0.04 mg Compound 1, Poloxamer 188:food grade GMS 50:50, cured 18 hours, one, two and four weeks post-curing (FIG. 6)): remained substantially the same
SMILES: O=C(O)COC[C@H]1CC[C@H](COC(=O)N(c2ccccc2)c2ccc(Cl)cc2)CC1 [Compound 1, 2-(((1r,4r)-4-(((4-chlorophenyl)(phenyl)carbamoyloxy)methyl)cyclohexyl)methoxy)acetic acid]
stabilisation of release profile by curing (capsule with research grade GMS (lower monoester content) instead of food grade GMS): curing was not as effective in stabilizing the release profile
release rate relative to immediate-release composition (capsules 0.5 mg Compound 1, Poloxamer 188:food grade GMS 70:30, 50:50 and 30:70 (FIGS. 8-10)): slower rate than the immediate-release composition
